Data from patent US20080293711A1 (priority 2007, published 2008).

Test system: not given
Experiment: not given
Settings: in vivo; cited from earlier work

Row | SMILES | side effect in clinical study
1 | c1cc(CN2CCCNCCNCCCNCC2)ccc1CN1CCCNCCNCCCNCC1 [AMD3100] | cardiac-related side effect

Test system: T-tropic HIV
Experiment: Phenoscreen assay: inhibition of cellular entry of HIV (luciferase-tagged test vector, target host cells)
Format: cell-based
Settings: Human immunodeficiency virus 1, read-out: IC50 value for viral entry inhibition
Procedure: A selected set of compounds are tested for their ability to inhibit the cellular entry of T-tropic HIV. The assay for this inhibition was carried out by Monogram Biosciences, Inc. using their well established Phenoscreen™ assay. Briefly, HIV strains of interest are tagged with a luciferase indicator gene to create an appropriate test vector. The test vector is amplified through transfection and the resulting virus is incubated in the presence of target host cells where intracellular florescence activity then becomes a measure of infection. Amplified virus is exposed to target host cells in the presence of a range of test drug concentrations to determine IC50 measurements of entry inhibition. A modification of this test is further reapplied as a novel drug assay used in partnership with a number of pharmaceutical companies to test the effectiveness of novel entry inhibitors that target specific chemokines. It can used to detect activity against T-tropic, M-tropic, and dual-tropic viruses and Monogram Biosciences has a large bank of over 10,000 different virus strains to ultimately assess the range of applicability of our chemokine modulators. Certain compounds are tested to establish efficacy in a number of viral strains.

Row | SMILES | IC50 [µM]
2 | O=C(NCc1ccccc1)c1ccc(C(=O)NNc2ccccc2)cc1 | ≤ 10
3 | O=C(NCc1ccc(C(=O)N(Cc2ccccc2)N2CCOCC2)cc1)c1cccs1 [A, N-(4-(benzyl(morpholino)carbamoyl)benzyl)thiophene-2-carboxamide] | ≤ 10
4 | O=C(NNc1ccc(C(F)(F)F)cc1)c1ccc(CNCc2ccccc2)cc1 [AA, 4-((benzylamino)methyl)-N′-(4-(trifluoromethyl)phenyl)benzohydrazide] | ≤ 10
5 | N#Cc1ccc(NNC(=O)c2ccc(CNCc3ccccc3)cc2)cc1 [AB, 4-((benzylamino)methyl)-N′-(4-cyanophenyl)benzohydrazide] | ≤ 10
6 | O=C(NNc1ccc(F)cc1F)c1ccc(CNCc2ccccc2)cc1 [AF, 4-((benzylamino)methyl)-N1′-(2,4-difluorophenyl)benzohydrazide] | ≤ 10
7 | O=C(NNc1ccccc1)c1ccc(CNCc2ccccn2)cc1 [AL, N′-phenyl-4-((pyridin-2-ylmethylamino)methyl)benzohydrazide] | ≤ 10
8 | O=C(NCc1ccccn1)c1ccc(C(=O)NNc2ccccc2)cc1 [AO, 4-(2-phenylhydrazinecarbonyl)-N-(pyridin-2-ylmethyl)benzamide] | ≤ 10
9 | C[C@H](NC(=O)NCc1ccc(C(=O)NNc2ccccc2)cc1)c1cccc2ccccc12 [BE, (S)-4-((3-(1-(naphthalen-1-yl)ethyl)ureido)methyl)-N′-phenylbenzohydrazide] | ≤ 10
10 | O=C(NNc1ccccc1)c1ccc(CNCc2ccccc2)cc1 [Z, 4-((benzylamino)methyl)-N′-phenylbenzohydrazide] | ≤ 10
